Assay results published in patent publication US20080207522A1, “Antimicrobial Peptides” (priority 2004, published 2008).

What was measured:
[1] = test system: Pseudomonas aeruginosa strain H1001 fliC::luxCDABE; test: Luminescence-based assay for the non-cleaved (bound) peptides on cellulose membranes; format: cell-based; details: for Luminescence at the given time in minutes: 0 / Luminescence at the given time in minutes: 20 / Luminescence at the given time in minutes: 40 / Luminescence at the given time in minutes: 60 / Luminescence at the given time in minutes: 80 / Luminescence at the given time in minutes: 100 / Luminescence at the given time in minutes: 120 / Luminescence at the given time in minutes: 180 / Luminescence at the given time in minutes: 240: cellulose-bound peptide; for Luminescence at the given time in minutes: 0: 0 min; for Luminescence at the given time in minutes: 20: 20 min; for Luminescence at the given time in minutes: 40: 40 min; for Luminescence at the given time in minutes: 60: 60 min; for Luminescence at the given time in minutes: 80: 80 min; for Luminescence at the given time in minutes: 100: 100 min; for Luminescence at the given time in minutes: 120: 120 min; for Luminescence at the given time in minutes: 180: 180 min; for Luminescence at the given time in minutes: 240: 240 min; for Activity Class bound: uncleaved cellulose-bound peptides
How it was run: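 Peptides remained bound to cellulose spots, which were ethanol-washed and equilibrated in 100 mM Tris pH 7.3. Constitutively lux-expressing P. aeruginosa (OD600 0.35 culture diluted 1:25) added in 10 mM Tris-HCl pH 7.3, 20 mM glucose at 37° C. Luminescence (RLU) followed over 14 time points; peptides binned into six activity classes.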

[2] = test system: Pseudomonas aeruginosa strain H1001; test: Assay for the cleaved (free, soluble) peptides from cellulose support, luminescence killing assay; format: cell-based; design: key: 1: Peptides showing stronger killing than Bac2A at a 4 to 8-fold higher dilution; Peptides showing stronger killing compared to that of Bac2A at a 4-fold higher dilution; 3: Peptides similar to Bac2A; 4: Peptides similar to Bac2A at the highest concentration but demonstrating weaker killing at a 2-fold dilution; 5: Peptides giving very weak or no killing at a 2-fold dilution; 6: Peptides with weak killing activity at the highest concentration; details: free (cleaved) peptides, killing relative to Bac2A
How it was run: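 Cellulose-synthesized peptides (amidated C-terminus, two β-alanines) cleaved by ammonia, released from punched spots 30 min at 37 °C, then serially diluted. P. aeruginosa H1001 (constitutive fliC::luxCDABE) overnight culture diluted 1:500 in LB or 100 mM Tris pH 7.3/20 mM glucose. Killing followed as time-dependent luminescence loss at 37 °C.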

| Sequence | Luminescence at the given time in minutes: 0 [1] [RLU] | Luminescence at the given time in minutes: 20 [1] [RLU] | Luminescence at the given time in minutes: 40 [1] [RLU] | Luminescence at the given time in minutes: 60 [1] [RLU] | Luminescence at the given time in minutes: 80 [1] [RLU] | Luminescence at the given time in minutes: 100 [1] [RLU] | Luminescence at the given time in minutes: 120 [1] [RLU] | Luminescence at the given time in minutes: 180 [1] [RLU] | Luminescence at the given time in minutes: 240 [1] [RLU] | Activity Class bound [1] | Activity Class Soluble [2] |
| --- | --- | --- | --- | --- | --- | --- | --- | --- | --- | --- | --- |
| RRRVIVAVLARI [Bac046] | 4408 | 5904 | 2345 | 233 | 76 | 70 | 102 | 48 | 53 | 3 (Peptides similar to Bac2A resulting in lux values of less than 500 after 240 min.) | 3 |
| RRVAIVVIARLR [Bac018] | 4966 | 6080 | 981 | 82 | 44 | 60 | 62 | 50 | 39 | 2 (Peptides reducing lux values to between 500 and 1000 after 40 min.) | 2 |
| RRVIAIAVRRLV [Bac050] | 4803 | 6715 | 5157 | 4430 | 3915 | 3428 | 3246 | 3206 | 3590 | 6 (Peptides having residual luminescence (lux) values greater than 3000 after 240 min.) | 3 |
| RVLIAARVIRRV [Bac047] | 4733 | 6747 | 5100 | 4770 | 4031 | 3383 | 3012 | 2829 | 2615 | 5 (Peptides reducing luminescence (lux) values to between 1500 to 3000 after 240 min.) | 3 |
| RVLRVVRAAIRI [Bac035] | 5199 | 6461 | 4989 | 4389 | 4001 | 3439 | 3162 | 2456 | 2577 | 5 (Peptides reducing luminescence (lux) values to between 1500 to 3000 after 240 min.) | 5 |
| VARIVVRLIRAR [Bac013] | 3890 | 6850 | 3930 | 1584 | 494 | 193 | 111 | 100 | 66 | 3 (Peptides similar to Bac2A resulting in lux values of less than 500 after 240 min.) | 3 |
| VIALRIAVRRVR [Bac045] | 4873 | 6105 | 2726 | 554 | 83 | 61 | 37 | 57 | 35 | 3 (Peptides similar to Bac2A resulting in lux values of less than 500 after 240 min.) | 3 |
| VIALVRARVRRI [Bac049] | 4926 | 7239 | 5219 | 4106 | 3188 | 2524 | 2059 | 1687 | 1794 | 5 (Peptides reducing luminescence (lux) values to between 1500 to 3000 after 240 min.) | 3 |
| VILARRRVRIAV [Bac017] | 4219 | 7259 | 5041 | 3136 | 1907 | 1047 | 578 | 321 | 214 | 3 (Peptides similar to Bac2A resulting in lux values of less than 500 after 240 min.) | 5 |
| VIVRLAARRVRI [Bac028] | 5001 | 6828 | 5315 | 5037 | 4555 | 4143 | 3762 | 3646 | 4268 | 6 (Peptides having residual luminescence (lux) values greater than 3000 after 240 min.) | 5 |
| VLARVVARRIRI [Bac040] | 4220 | 6241 | 4269 | 3951 | 3368 | 2880 | 2761 | 2300 | 2415 | 5 (Peptides reducing luminescence (lux) values to between 1500 to 3000 after 240 min.) | 5 |
| VLIRIRRVARAV [Bac008] | 3718 | 6695 | 5154 | 4426 | 3671 | 3164 | 2786 | 2703 | 2890 | 5 (Peptides reducing luminescence (lux) values to between 1500 to 3000 after 240 min.) | 2 |
